How the values were obtained:
Erysiphe graminis [1] = assay: Powdery mildew of barley, systemic root uptake (BMS); format: in vivo; details: 45 ml of 250 mg/l, 8 days after inoculation
Summary of the method: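 Pot soil of barley (BMS) and cucumber (CMS) plants was drenched with 45 ml of a 250 mg/l acetone/Tween 20 aqueous emulsion, with untreated plants as controls. Disease was scored on a rating scale that included intermediate grades.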

Uromyces phaseoli = assay: Bean rust fungus eradicant test (URO PHA); format: in vivo; details: pinto bean, eradicant spray 2 days after inoculation, 1,000 mg/l; for pest or weed control at 1000 µg/mL: Uromyces phaseoli, 216 h, read-out: Percent Reduction of Disease, URO PHA
Summary of the method: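 Seven-day-old pinto bean plants (Phaseolus vulgaris, primary leaf) were inoculated with 20,000 spores/ml, held 24 h at 99% humidity and 21° C., then sprayed two days post-inoculation with acetone/TWEEN 20 emulsions at 1,000 mg/l. After nine days in a 21° C. greenhouse, disease was scored as percent reduction versus unsprayed controls.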

Erysiphe graminis [2] = assay: Powdery mildew in barley, foliar application (ERY GRA); format: in vivo; details: foliar, 1,000 mg/l, 8 days after inoculation; for pest or weed control at 1000 µg/mL: Blumeria graminis, foliar, 192 h, read-out: Percent Reduction of Disease, ERY GRA
Summary of the method: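 'Robust' barley plants sprayed with acetone/TWEEN 20 aqueous emulsion at 1,000 mg/l, dried, then kept at 21° C in a greenhouse. Inoculated by distributing Erysiphe graminis spores from infected plants. Percent control computed from disease scores vs unsprayed control pots.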

Septoria nodorum = assay: Fungal growth inhibition, treated disc on agar (SEP NOD); format: cell-based; details: disc dipped in 500 mg/l, 29° C.; for inhibition at 500 µg/mL: Parastagonospora nodorum, read-out: Percent Growth Inhibition, SEP NOD
Excerpt: Filter paper discs, each 11 mm. in diameter, were dipped in each of the test solutions. The discs were allowed to air dry to drive off the acetone solvent. A number of untreated discs were used as controls.
The treated and untreated discs were then placed on agar plates and one of the following fungus species: Septoria nodorum (SEP NOD), Botrytis cinerea (BOT CIN), Fusarium oxysporum (FUS OXY), Pythium ultimum (PYT ULT), Rhizoctonia solani (RHI SOL), Colletotrichum gossypii (COL GOS), and Scierotinia minor (SCL MIN), was added to the center of each disc in the form of a culture plug with the fungus mat in contact with the paper of the test disc. Cercosporidium personatum (CER PER), was added to discs as a spore suspension (20,000 spores/ml) to the disc (two drops of spore suspension per disc), rather than a mycelial culture plug. The plates were then incubated at 29° C. in an oven.
With the exception of the discs containing Cercosporidium personatum, the discs were evaluated by first measuring the radius from the center of the fungus colony on the treated discs and on the untreated discs. Percent growth inhibition of each of the compounds tested was determined as a function of the difference between the radius of the fungus colony on the treated disc versus the radius of the fungus colony on the untreated disc.

Rhizoctonia solani = assay: Fungal growth inhibition, treated disc on agar (RHI SOL); format: cell-based; details: disc dipped in 500 mg/l, 29° C.; for inhibition at 500 µg/mL: Rhizoctonia solani, read-out: Percent Growth Inhibition, RHI SOL
Botrytis cinerea = assay: Fungal growth inhibition, treated disc on agar (BOT CIN); format: cell-based; details: disc dipped in 500 mg/l, 29° C.; for inhibition at 500 µg/mL: Botrytis cinerea, read-out: Percent Growth Inhibition, BOT CIN
Fusarium oxysporum = assay: Fungal growth inhibition, treated disc on agar (FUS OXY); format: cell-based; details: disc dipped in 500 mg/l, 29° C.; for inhibition at 500 µg/mL: Fusarium oxysporum, read-out: Percent Growth Inhibition, FUS OXY

Compound | Percent Reduction of Disease, BMS (Erysiphe graminis [1]) | pest or weed control at 1000 µg/mL (Uromyces phaseoli) | pest or weed control at 1000 µg/mL (Erysiphe graminis [2]) | inhibition at 500 µg/mL (Septoria nodorum) | inhibition at 500 µg/mL (Rhizoctonia solani) | inhibition at 500 µg/mL (Botrytis cinerea) | inhibition at 500 µg/mL (Fusarium oxysporum) | Percent Reduction of Disease, URO PHA (Uromyces phaseoli) | Percent Reduction of Disease, ERY GRA (Erysiphe graminis [2]) | Percent Growth Inhibition, SEP NOD (Septoria nodorum) | Percent Growth Inhibition, RHI SOL (Rhizoctonia solani) | Percent Growth Inhibition, BOT CIN (Botrytis cinerea) | Percent Growth Inhibition, FUS OXY (Fusarium oxysporum)
N#CC(CCCC(F)(F)F)(CCc1ccc(F)cc1)c1cccnc1 (centres unmarked) [Compound 78] | 100% | 83% | 100% | 30% | 0% | 34% | 40% | – | – | – | – | – | –
C=CCC(C#N)(CCc1ccccc1F)c1cccnc1 (centres unmarked) [Compound 67] | 100% | 50% | 100% | 100% | 40% | 100% | 100% | – | – | – | – | – | –
C=C(Cl)CC(C#N)(CCc1ccc(F)cc1)c1cccnc1 (centres unmarked) [Compound 65] | 0% | 50% | 85% | 100% | 30% | 100% | 100% | – | – | – | – | – | –
CCCC(C#N)(CCc1ccc(F)cc1)c1cccnc1 (centres unmarked) [Compound 10] | 84% | 100% | 100% | 80% | 96% | 98% | 97% | – | – | – | – | – | –
CC(C)CC(C#N)(CCc1ccccc1)c1cccnc1 (centres unmarked) [Compound 7] | 35% | 90% | 100% | 5% | 94% | 100% | 100% | – | – | – | – | – | –
CC(C)CC(C#N)(CCc1ccc(F)cc1)c1cccnc1 (centres unmarked) [Compound 39] | 0% | 92% | 92% | 8% | 11% | 57% | 30% | – | – | – | – | – | –
CCCCCCC(C#N)(CCc1ccc(OC)cc1)c1cccnc1 (centres unmarked) [Compound 36] | 0% | 100% | 85% | 96% | 25% | 45% | 80% | – | – | – | – | – | –
CCCCC(C#N)(CCc1ccc(OCC)cc1)c1cccnc1.Cl (stereo not drawn) [Compound 42, α-butyl-4-ethoxy-α-(3-pyridinyl)-benzenebutanenitrile hydrochloride] | 0% | – | – | – | – | – | – | 33% | 92% | 100% | 32% | 100% | 100%
CCCCCCC(C#N)(CCc1ccc(F)cc1)c1cccnc1 (centres unmarked) [Compound 45] | 0% | 92% | 92% | 100% | 6% | 100% | 14% | – | – | – | – | – | –
C=CCC(C#N)(CCc1ccc(C)cc1)c1cccnc1 (centres unmarked) [Compound 33] | 40% | 100% | 100% | 96% | 0% | 98% | 100% | – | – | – | – | – | –
CCCC(C#N)(Cc1ccc(C(C)(C)C)cc1)c1cccnc1 (centres unmarked) [Compound 14] | 0% | 33% | 100% | 0% | 5% | 15% | 25% | – | – | – | – | – | –
COc1ccc(CCC(C#N)(CC2CC2)c2cccnc2)cc1 (centres unmarked) [Compound 37] | 0% | 92% | 92% | 100% | 13% | 100% | 100% | – | – | – | – | – | –
CCCCC(C#N)(CCc1ccc(F)cc1)c1cccnc1 (centres unmarked) [Compound 11] | 74% | 100% | 100% | 60% | 98% | 100% | 10% | – | – | – | – | – | –
C#CCC(CCc1ccccc1)(C(N)=S)c1cccnc1 (stereo not drawn) [Compound 61, α-(2-phenylethyl)-α-(2-propynyl)-3-pyridinethanethioamide] | 20% | 0% | 100% | 20% | 80% | 100% | 100% | – | – | – | – | – | –
CC(C)=CCC(C#N)(CCc1ccccc1)c1cccnc1 (centres unmarked) [Compound 8] | 45% | 80% | 100% | 25% | 45% | 40% | 0% | – | – | – | – | – | –
CCCCC(C#N)(CCCc1ccc(Cl)cc1)c1cccnc1 (centres unmarked) [Compound 13] | 40% | 100% | 100% | 75% | 100% | 98% | 60% | – | – | – | – | – | –
CCCC(C#N)(CCCc1ccccc1Cl)c1cccnc1 (stereo not drawn) [Compound 15, 2-chloro-α-propyl-(3-pyridinyl)benzene pentanenitrile] | 0% | 83% | 100% | 93% | 98% | 30% | 95% | – | – | – | – | – | –
Cc1ccc(CCC(C#N)(CCCF)c2cccnc2)cc1 (centres unmarked) [Compound 81] | 0% | 90% | 70% | 40% | 5% | 30% | 20% | – | – | – | – | – | –
CC(C)=CCC(C#N)(CCc1ccc(F)cc1)c1cccnc1 (centres unmarked) [Compound 47] | 0% | 33% | 70% | 100% | 45% | 100% | 50% | – | – | – | – | – | –
C=CCC(C#N)(CCc1ccc(F)cc1)c1cccnc1 (stereo not drawn) [Compound 9, 4-fluoro-α-(2-propenyl)-α-(3-pyridinyl)benzenebutanenitrile] | 40% | 100% | 100% | 30% | 95% | 100% | 100% | – | – | – | – | – | –
COCC(C#N)(CCc1ccccc1)c1cccnc1 (centres unmarked) [Compound 6] | 100% | 50% | 70% | 0% | 50% | 100% | 93% | – | – | – | – | – | –
CCCCC(C#N)(CCc1ccc(OCCF)cc1)c1cccnc1 (centres unmarked) [Compound 68] | 0% | 50% | 75% | 100% | 45% | 100% | 100% | – | – | – | – | – | –
CCCC(C#N)(CCc1ccccc1F)c1cccnc1 (centres unmarked) [Compound 75] | 100% | 83% | 92% | 100% | 100% | 100% | 100% | – | – | – | – | – | –
COCC(C#N)(CCc1ccc(OC)cc1)c1cccnc1 (centres unmarked) [Compound 50] | 0% | 90% | 80% | 100% | 20% | 0% | 100% | – | – | – | – | – | –
CC=CCC(C#N)(CCc1ccc(F)cc1)c1cccnc1 (centres unmarked) [Compound 59] | 75% | 35% | 100% | 100% | 5% | 100% | 100% | – | – | – | – | – | –
CCCC(C#N)(CCCc1ccc(Cl)cc1)c1cccnc1 (centres unmarked) [Compound 12] | 40% | 100% | 100% | 70% | 98% | 98% | 80% | – | – | – | – | – | –

From US5945436A, “Pyridylmethyl nitriles, amides and thioamides useful as fungicides” (Uniroyal Chemical Company, Inc., priority 1997, dated 1999)
